Test systems include A549 NSCLC; HL-60(TB) leukemia; HT29 colon; IGROV1 ovarian; NCI-H23 lung; OVCAR-4 ovarian; SN12C renal; SNB-75 CNS; U251 CNS.
Test in all cases: NCI tumour cell line growth inhibition, 48 h

Each structure is given as a SMILES string. Where “and” joins values, the source holds several entries; their conditions need not be identical. Identical values can stand only once.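 In this assay, cells in 96-well plates receive the compound at five concentrations for 48 hours. Endpoints are linearly interpolated between the surrounding concentrations. The concentration for 50% growth inhibition is given as GI50. TGI denotes the concentration required for complete inhibition of growth.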

The record followed here is PubChem BioAssay (NCI).

In the case of `CC(=O)N(C)OC(=O)CC(=O)c1ccccc1`, the TGI with A549 NSCLC, with HL-60(TB) leukemia, with HT29 colon, in the experiment on IGROV1 ovarian, in the experiment with NCI-H23 lung and in the experiment with OVCAR-4 ovarian was > 100 µM each time. The TGI in the experiment with SN12C renal, in the experiment with SNB-75 CNS and with U251 CNS was > 100 µM throughout.
In the case of `O=C1NC(=O)C(C(=O)C(=O)Nc2ccc(Br)cc2)C(=O)N1`, the TGI in the experiment on A549 NSCLC, with HL-60(TB) leukemia, with HT29 colon, in the experiment with IGROV1 ovarian, in the experiment on NCI-H23 lung and with OVCAR-4 ovarian was > 100 µM in each case. Moreover, the TGI with SN12C renal, in the experiment on SNB-75 CNS and in the experiment with U251 CNS was > 100 µM in each case.
For the compound `CC1=CC=NN2C(=O)[C@H](C)C2C1` (some centres not stated), the TGI with A549 NSCLC, in the experiment on HL-60(TB) leukemia, with HT29 colon, in the experiment on IGROV1 ovarian, in the experiment on NCI-H23 lung and in the experiment with OVCAR-4 ovarian was > 100 µM in each case. Also, the TGI in the experiment with SN12C renal, in the experiment with SNB-75 CNS and in the experiment with U251 CNS was > 100 µM each time.
Consider `Cn1ncc(=S)[nH]c1=S`, for which the TGI with A549 NSCLC, in the experiment on IGROV1 ovarian, with NCI-H23 lung, with OVCAR-4 ovarian, with SN12C renal and with SNB-75 CNS was > 100 µM each time. In addition, the TGI with U251 CNS was > 100 µM.
`CC(Cn1c2c3ccccc3ccc2c2oc(=O)c3ccccc3c21)N(C)C` (configuration not stated): the TGI in the experiment with A549 NSCLC, with HL-60(TB) leukemia, in the experiment on HT29 colon, in the experiment with IGROV1 ovarian, in the experiment on NCI-H23 lung and in the experiment with OVCAR-4 ovarian was > 100 µM each time. The TGI in the experiment on SNB-75 CNS and with U251 CNS was > 100 µM in each case.
As to `COC(=O)c1c[nH]cc1CCc1c[nH]cc1C(=O)OC`, the TGI in the experiment on A549 NSCLC, in the experiment with HL-60(TB) leukemia, in the experiment with HT29 colon, in the experiment on IGROV1 ovarian, in the experiment with NCI-H23 lung and in the experiment on OVCAR-4 ovarian was > 100 µM in each case. Also, the TGI in the experiment with SN12C renal and in the experiment on U251 CNS was > 100 µM each time.
For `O=C(Cc1nc2ccccc2s1)C(=O)Nc1ccc(Cl)cc1`, the TGI in the experiment on A549 NSCLC, with HL-60(TB) leukemia, with HT29 colon, in the experiment with IGROV1 ovarian, in the experiment with NCI-H23 lung and with OVCAR-4 ovarian was > 100 µM each time. Further, the TGI with SN12C renal, in the experiment on SNB-75 CNS and in the experiment on U251 CNS was > 100 µM each time.
As to `COc1ccc(OCC(=O)O)c2c1CCC(C(C)C)C2=O` (configuration not stated), the TGI in the experiment with A549 NSCLC, with HL-60(TB) leukemia, in the experiment on HT29 colon, in the experiment on IGROV1 ovarian, in the experiment with NCI-H23 lung and with OVCAR-4 ovarian was > 100 µM each time. The TGI in the experiment on U251 CNS was > 100 µM.
In the case of `CCOC(=N)CC(=O)Nc1ccc(Cl)cc1`, the TGI in the experiment on A549 NSCLC, with HL-60(TB) leukemia, in the experiment with HT29 colon, in the experiment on IGROV1 ovarian, in the experiment with NCI-H23 lung and with OVCAR-4 ovarian was > 100 µM each time. Further, the TGI with SN12C renal, in the experiment with SNB-75 CNS and with U251 CNS was > 100 µM each time.
Consider `O=C(CCN1CCN(c2cccc(Cl)c2)CC1)N1CCc2c([nH]c3ccccc23)C1c1cccnc1` (configuration not stated), for which the TGI with A549 NSCLC is 19 µM; in the experiment with HL-60(TB) leukemia, 5.53 µM and 11.2 µM; in the experiment on HT29 colon it was 16.4 µM; with IGROV1 ovarian, > 100 µM; in the experiment with NCI-H23 lung it was 28 µM; in the experiment with OVCAR-4 ovarian, 18.4 µM. Moreover, the TGI was determined as 21.1 µM with SN12C renal, 17.1 µM in the experiment with SNB-75 CNS and 21.5 µM in the experiment on U251 CNS. The GI50 is 3.19 µM in the experiment with HL-60(TB) leukemia; 4.13 µM in the experiment with HT29 colon; 18.7 µM with IGROV1 ovarian; 11.2 µM in the experiment with NCI-H23 lung; 4.23 µM in the experiment on OVCAR-4 ovarian; 7.59 µM in the experiment on SN12C renal. The GI50 was 6.24 µM in the experiment with SNB-75 CNS and 9.96 µM in the experiment with U251 CNS.
`O=C(O)c1ccc(S(=O)(=O)c2ccccc2)c([N+](=O)[O-])c1`: the TGI with A549 NSCLC, in the experiment with HL-60(TB) leukemia, in the experiment with HT29 colon, in the experiment with IGROV1 ovarian, in the experiment with NCI-H23 lung and with OVCAR-4 ovarian was > 100 µM each time. Moreover, the TGI with SN12C renal, in the experiment on SNB-75 CNS and in the experiment with U251 CNS was > 100 µM throughout.
With `COC(=O)C1(C)C=C(Nc2ccccc2)C(=O)N1c1ccccc1` (configuration not stated), the TGI with A549 NSCLC, with HL-60(TB) leukemia, in the experiment with HT29 colon, with IGROV1 ovarian, with NCI-H23 lung and in the experiment with OVCAR-4 ovarian was > 100 µM throughout. For the same compound, the TGI in the experiment with SN12C renal and in the experiment on U251 CNS was > 100 µM throughout.
In the case of `COc1ccc2[nH]cc(CCNC(C)=O)c2c1`, the TGI with A549 NSCLC, in the experiment with HL-60(TB) leukemia, in the experiment with HT29 colon, in the experiment on IGROV1 ovarian, in the experiment on NCI-H23 lung and in the experiment on OVCAR-4 ovarian was > 100 µM each time. Besides, the TGI in the experiment on SN12C renal, with SNB-75 CNS and in the experiment on U251 CNS was > 100 µM in each case.
On to `C/C(CN1C(=O)c2ccccc2C1=O)=N\NS(=O)(=O)c1cccc([N+](=O)[O-])c1`, for which the TGI in the experiment on A549 NSCLC, with HL-60(TB) leukemia, in the experiment with HT29 colon, in the experiment on IGROV1 ovarian, in the experiment with NCI-H23 lung and with OVCAR-4 ovarian was > 100 µM throughout. Further, the TGI with SN12C renal, with SNB-75 CNS and in the experiment on U251 CNS was > 100 µM throughout.
